For the assay, the system named is rat. Description: Conditioned Avoidance Responding in Rat. The settings on record: inhibition of conditioned avoidance responding, oral, tested 30-360 minutes after administration, % of vehicle control, read-out: Peak ED50. It is filed as in vivo, rat (male CDF). An excerpt: Conditioned Avoidance Responding in Rat
The procedure utilized is a modification of the procedure of Cook and Weidley (Ann. NY Acad Sci.66: 740-752, 1957).
Apparatus: A Coulbourn Instruments large modular test cage (25×30×30 cm) with a pole suspended from the center of the ceiling and a stainless steel grid floor. A 0.75 mA pulsed current (250 msec on, 750 msec off) is delivered to the grid floor by a Coulbourn Instruments programmable shocker.
Animals: Male CDF rats are purchased from Charles River Breeding Laboratories (Wilmington, Mass.).
Test Procedure: Each trial lasts 25 seconds. Ten seconds after the rat is placed in the testing apparatus, footshock is delivered for 15 seconds. The rat is immediately removed from the testing apparatus. If the rat climbs the pole within the first 10 seconds, footshock is avoided and an avoidance response is recorded. If the rat climbs the pole during the footshock period, an escape response is recorded. If the animal fails to climb the pole during the 25 second trial period, an escape failure is recorded.
Drug testing is initiated after rats are well trained to consistently avoid footshock. Rats are tested for conditioned avoidance responding at various time intervals (30-360 minutes) after oral administration of test compound.
For each dose of test compound, inhibition of conditioned avoidance responding is expressed as a percentage of the corresponding Drug Vehicle (control) value. The percent antagonism is used to calculate ED50 values when appropriate.

By ED50 is commonly meant the dose at which the effect has come halfway, by size or by number of responders. As to `Cc1cc2c3c(c1)c1c(n3-c3ccc(Cl)cc3NC2=O)CCN(C)C1` [Example 1, 11-chloro-1,2,3,4,8,9-hexahydro-3,6-dimethylpyrido[4',3':2,3]indolo[1,7-ab][1,5]benzodiazepin-8(9H)-one], the median effective dose (ED50) was no more than 20 mg/kg.
The value for `Cc1cc2c3c(c1)c1c(n3-c3ccc(C(F)(F)F)cc3NC2=O)CCN(C)C1` [Example 3] was 20 to 50 mg/kg.
The value for `Cc1cc2c3c(c1)c1c(n3-c3ccc(Cl)cc3NC2)CCN(C)C1` [Example 23, 11-chloro-1,2,3,4,8,9-hexahydro-3,6-dimethylpyrido[4',3':2,3]indolo[1,7-ab][1,5]benzodiazepine] was no more than 20 mg/kg; that for `Cc1cc2c3c(c1)c1c(n3-c3ccc(C(F)(F)F)cc3NC2)CCN(C)C1` [Example 25] was no more than 20 mg/kg.

(Values after patent US5321023A, “Pyridoindolobenzodiazepines and derivatives as antipsychotics” (The Du Pont Merck Pharmaceutical Co., priority 1992, dated 1994).)
